# Target: Tubulin beta-1 chain (Homo sapiens, UniProt Q9H4B7)
# Test: Concentration required for 50% inhibition of tubulin polymerization
# Chain of Tubulin beta-1 chain (Q9H4B7 whole entry): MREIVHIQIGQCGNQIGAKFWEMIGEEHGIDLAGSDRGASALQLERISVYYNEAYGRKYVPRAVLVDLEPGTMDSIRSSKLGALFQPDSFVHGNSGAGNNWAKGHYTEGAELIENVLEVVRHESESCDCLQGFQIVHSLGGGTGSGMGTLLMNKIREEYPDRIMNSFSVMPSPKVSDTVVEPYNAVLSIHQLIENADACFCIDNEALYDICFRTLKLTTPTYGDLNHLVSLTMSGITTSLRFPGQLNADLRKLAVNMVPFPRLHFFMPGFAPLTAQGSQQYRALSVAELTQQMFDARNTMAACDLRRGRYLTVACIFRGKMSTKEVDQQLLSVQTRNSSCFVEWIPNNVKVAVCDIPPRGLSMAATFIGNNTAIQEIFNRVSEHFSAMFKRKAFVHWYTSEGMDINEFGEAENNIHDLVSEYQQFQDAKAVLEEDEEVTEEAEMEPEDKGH
row,SMILES,IC50 [nM]
1,CC/C(=C/c1ccc(OC)c(O)c1)c1cc(OC)c(OC)c(OC)c1,130
2,CO/C(=C\c1ccc(OC)c(F)c1)C(=O)c1cc(OC)c(OC)c(OC)c1,470
3,COc1ccc(/C=C/C(=O)c2cc(OC)c(OC)c(OC)c2)cc1N,2000
4,COc1ccc(/C=C\c2cc(OC)c(OC)c(OC)c2)cc1,200
5,CCOc1cc(/C=C\c2ccc(OC)c(F)c2)cc(OCC)c1OCC,1200
6,CO/C(=C\c1ccc(OC)c(O)c1)C(=O)c1cc(OC)c(OC)c(OC)c1,510
7,COc1ccc(/C=C(\C)C(=O)c2cc(OC)c(OC)c(OC)c2)cc1F,650
8,COc1ccc(C(=O)/C=C/c2cc(O)c(O)c(O)c2)c(OC)c1OC,> 100000
9,COc1ccc(/C=C\c2cc(O)c(OC)c(OC)c2)cc1F,1250
10,COc1ccc(/C=C(/C)c2cc(OC)c(OC)c(OC)c2)cc1,1300
11,CCOc1cc(/C=C\c2ccc(OC)c(O)c2)cc(OCC)c1OCC,500
12,COc1cc(/C=C\c2ccc(C)c(C)c2)cc(OC)c1OC,2000
13,COc1ccc(/C=C\c2ccc(C)c(C)c2)cc1O,3100
14,COc1ccc(/C(C)=C/c2cc(OC)c(OC)c(OC)c2)cc1O,9000
15,COc1ccc(OCc2cc(OC)c(OC)c(OC)c2)cc1CO,> 100000
16,COc1ccc(/C=C\c2cc(C)c(C)c(C)c2)cc1F,700
17,COc1ccc(/C=C(/C)c2cc(OC)c(OC)c(OC)c2)cc1O,130
18,COc1ccc(/C=C(\C)C(=O)c2cc(OC)c(OC)c(OC)c2)cc1[N+](=O)[O-],> 10000

# Continued, values first:
row,IC50 [nM],SMILES
1,4000,COc1ccc(CC(C)C(=O)c2cc(OC)c(OC)c(OC)c2)cc1O (stereo not given)
2,10000,COc1ccc(OC)c(C(=O)/C(C)=C/c2ccc(N(C)C)cc2)c1
3,11000,COc1ccc(Oc2cc(OC)c(OC)c(OC)c2)cc1O
4,6600,COc1ccc(/C=C\c2ccc(C)c(C)c2)cc1F
5,7900,COc1ccc(/C=C/C(=O)c2ccc(OC)c(OC)c2OC)cc1F
6,1700,CO/C(=C\c1cc(F)c(OC)c(F)c1)C(=O)c1cc(OC)c(OC)c(OC)c1
7,5500,COc1ccc(/C=C\c2cc(F)c(F)c(F)c2)cc1F
8,650,COc1ccc(/C=C\c2cc(C)c(C)c(C)c2)cc1
9,2400,COc1cc(C(=O)/C(C)=C/c2cc(F)c(OC)c(F)c2)cc(OC)c1OC
10,460,COc1ccc(/C=C(\C)C(=O)c2cc(OC)c(OC)c(OC)c2)cc1O
11,4500,COc1ccc(/C=C\c2cc(F)c(F)c(F)c2)cc1O
12,> 10000,COc1ccc(/C=C(\C)C(O)c2cc(OC)c(OC)c(OC)c2)cc1O (stereo not given)
13,620,COc1ccc(/C=C/C(=O)c2cc(OC)c(OC)c(OC)c2)cc1O
14,120,COc1ccc(/C=C\c2cc(C)c(C)c(C)c2)cc1O
15,41000,COc1ccc(COc2cc(OC)c(OC)c(OC)c2)cc1OCC=O
16,> 100000,COc1ccc(Nc2cc(OC)c(OC)c(OC)c2)cc1O
17,2500,COc1ccc(/C=C\c2ccccc2)cc1O
18,> 100000,COc1cc(C(=O)/C=C/c2ccc(O)c(O)c2)cc(OC)c1OC
19,21000,COc1ccc(OCc2cc(OC)c(OC)c(OC)c2)cc1O
20,31000,COc1ccc(C(=O)/C=C/c2cc(F)c(OC)c(F)c2)c(OC)c1OC
21,7200,COc1ccc(COc2cc(OC)c(OC)c(OC)c2)cc1O
22,560,COc1ccc(OCc2cc(OC)c(OC)c(OC)c2)cc1C=O
23,1200,COc1ccc(/C=C/C(=O)c2cc(OC)c(OC)c(OC)c2)cc1F
24,12000,COc1cc(C(=O)/C=C/c2cc(F)c(OC)c(F)c2)cc(OC)c1OC
25,3400,CCc1ccc(/C=C\c2cc(OC)c(OC)c(OC)c2)cc1
26,450,COc1ccc(/C=C/C(=O)c2ccc(OC)c(OC)c2OC)cc1O
27,> 100000,COc1ccc(COc2cc(OC)c(OC)c(OC)c2)cc1OCC(O)CO (stereo not given)
